# Data: ChEMBL document CHEMBL1127641, “Applications of combinatorial technologies to drug discovery. 1. Background and peptide combinatorial libraries” (J Med Chem, 1994)
# Target: Beta-secretase (BACE) (Homo sapiens, UniProt Q9Y5Z0+P56817)
# Assay: Inhibitory activity against aspartyl protease
# Type: protein assay
structure (smiles),measurement,value
CC[C@H](C)[C@H](NC(=O)[C@H](Cc1ccccc1)NC(C)=O)C(=O)NC(CC(C)C)C(O)CC(=O)NC(CC(C)C)C(N)=O (stereo in doubt),IC50,1.4 µM
